Laboratory results published in patent US20250042885A1, “SOLID STATE FORMS OF LOTILANER AND PROCESS FOR PREPARATION THEREOF” (TEVA PHARMACEUTICALS INTERNATIONAL GMBH, priority 2021, published 2025).

Tests used:
Assay type in all cases: physicochemical
[1] = Storage stability at different temperatures and/or relative humidities (XRPD)
Procedure: (§1) Prior to analysis, the samples were gently ground by means of mortar and pestle in order to obtain a fine powder. The ground sample was adjusted into a cavity of the sample holder and the surface of the sample was smoothed by means of a cover glass.
(§2) • Scan range: 2-40 degrees 2-theta; • Scan mode: continuous; • Step size: 0.05 degrees; • Time per step: 0.5 s; • Sample spin: 30 rpm; • Sample holder: PMMA specimen holder ring with silicon low background holder.
Samples of Lotilaner forms were subjected to conditions of different temperatures and/or relative humidities. XRPD analysis was performed on the samples after 1, 3 or 6 months.

[2] = Thermal stability (heating, XRPD)
Procedure: (§3) X-ray diffraction was performed on X-Ray powder diffractometer Bruker D8 Advance; CuK_radiation (λ=1.5418 Å); Lynx eye detector; laboratory temperature 22-25° C.; PMMA specimen holder ring. Prior to analysis, the samples were gently ground by means of mortar and pestle in order to obtain a fine powder. The ground sample was adjusted into a cavity of the sample holder and the surface of the sample was smoothed by means of a cover glass.
as §2
Samples of Lotilaner forms were subjected to heating up to 100° C. for 30 minutes. XRPD analysis of the sample confirmed no change in the starting material (Table 4): […]

[3] = Storage stability at different relative humidities (XRPD); conditions: for at least 7 days; conclusion from Table 1
Procedure: as §1, §2
Samples of Lotilaner forms were subjected to conditions of different relative humidities at ambient temperature. XRPD analysis was performed on the samples after 7 days.

[4] = Grinding experiments (strong grinding, solvent drop grinding; XRPD)
Procedure: as §3, §2
Samples of Lotilaner forms were subjected to strong grinding, and to solvent drop grinding in water, ethanol or isopropanol. Grinding was carried out on the samples alone, or in the presence of ethanol, water or isopropanol. In these experiments, about 20 mg of the sample is placed in a mortar and ground with a pestle for 2 minutes. The solvent, when used, as added to the crystalline material before grinding, in a volume of 10 microlitres. XRPD analysis performed on each of the samples after the grinding experiment, confirmed no change in the starting material (Table 3): […]

[5] = Stability to compression (XRPD)
Procedure: as §1, §2
Samples of Lotilaner forms were subjected to pressures of 2 tons for one minute. XRPD analysis was performed on the samples after 1 minute.

## Cc1cc(C2=NO[C@@](c3cc(Cl)c(Cl)c(Cl)c3)(C(F)(F)F)C2)sc1C(=O)NCC(=O)NCC(F)(F)F [Form LT4 Lotilaner, 3-Methyl-N-[2-oxo-2-(2,2,2-trifluoroethylamino)ethyl]-5-[(5S)-5-(3,4,5-trichlorophenyl)-5-(trifluoromethyl)-4H-1,2-oxazol-3-yl]thiophene-2-carboxamide]
[1]; 3 months (3 m)
  XRPD analysis after storage, 2-8° C.: No change
  XRPD analysis after storage, 25° C., 60% RH: No change
  XRPD analysis after storage, 40° C., 75% RH: No change

## Cc1cc(C2=NO[C@@](c3cc(Cl)c(Cl)c(Cl)c3)(C(F)(F)F)C2)sc1C(=O)NCC(=O)NCC(F)(F)F [Form LT5 Lotilaner, 3-Methyl-N-[2-oxo-2-(2,2,2-trifluoroethylamino)ethyl]-5-[(5S)-5-(3,4,5-trichlorophenyl)-5-(trifluoromethyl)-4H-1,2-oxazol-3-yl]thiophene-2-carboxamide]
[1]; 1 month (1 m)
  XRPD analysis after storage, 2-8° C.: No change
  XRPD analysis after storage, 25° C., 60% RH: No change
  XRPD analysis after storage, 40° C., 75% RH: No change

## Cc1cc(C2=NO[C@@](c3cc(Cl)c(Cl)c(Cl)c3)(C(F)(F)F)C2)sc1C(=O)NCC(=O)NCC(F)(F)F [Form LT1 Lotilaner, 3-Methyl-N-[2-oxo-2-(2,2,2-trifluoroethylamino)ethyl]-5-[(5S)-5-(3,4,5-trichlorophenyl)-5-(trifluoromethyl)-4H-1,2-oxazol-3-yl]thiophene-2-carboxamide]
[2]
  XRPD analysis after heating 100° C., 30 minutes: No change
[3]
  Stability after exposure to high and low relative humidity: stable
[1]; 6 months (6 m)
  XRPD analysis after storage, 2-8° C.: No change
  XRPD analysis after storage, 25° C., 60% RH: No change
  XRPD analysis after storage, 40° C., 75% RH: No change
[1]; conclusion from Table 2
  Storage stability: good storage stability
[4]; about 20 mg ground in mortar with pestle for 2 minutes, no solvent
  XRPD analysis after strong grinding: No change
[4]; conclusion from Table 3
  Resistance to polymorphic changes on grinding: resistant to polymorphic changes
[4]; ground 2 minutes, 10 microlitres ethanol
  XRPD analysis after solvent-drop grinding (ethanol): No change
[4]; ground 2 minutes, 10 microlitres isopropanol
  XRPD analysis after solvent-drop grinding (isopropanol): No change
[4]; ground 2 minutes, 10 microlitres water
  XRPD analysis after solvent-drop grinding (water): No change
[5]; 2 tons for one minute
  XRPD analysis results, pressure (2 tons): No change
[5]; conclusion from Table 5
  Stability under high pressure conditions: stable
